For data set [1], the system named is streptozotocin-induced diabetic male rats. The experiment in a line: PDMP treatment of streptozotocin diabetic rats (renal hypertrophy). The format is in vivo, rat. The procedure:
(§1) Because there is gender specific expression of renal GSLs, only male rats were used. Shukla, A. et al., am. J. Physiol. 262: F24-F29 (1992). Male rats were fed a standard pellet laboratory chow and were provided with water ad libitum. Diabetes was induced by the administration of streptozotocin (80 mg/kg i.p.) dissolved in 10 mM Na citrate, pH 5.5. Controls were injected with buffer alone. Animals were provided with immediate access to food. Blood was obtained from the tail vein and blood glucose levels were determined with a Beckman glucose analyzer 48 h following the injection and at the time of organ resection. […] Therefore only animals with blood glucose concentrations between 13.5 and 32 mM were utilized. At the end of the experimental period, the animals were weighted, anesthetized with ether, and their kidneys removed and weighed. For UDP-Glc measurements, the kidneys were frozen in liquid nitrogen immediately following removal.
(§2) The GlcCer synthase inhibitor PDMP was administered as the DL-hydrochlorideto both diabetic and control animals 14 days following the induction of diabetes with streptozotocin (see Table IV results). […] See Shukla, A. et al., J. Lipid. Res. 32:713-722 (1991). The piperonyl butoxide was prepared by dissolution in corn oil at a concentration of 150 mg/ml oil. The butoxide solution was administered intraperitoneally prior to injection of PDMP. On the first day of treatment this was given 4 h before PDMP treatment; on days 2 to 4 of treatment it was administered just prior to the PDMP injection. PDMP was prepared as an emulsion with the detergent Myrj 52 in normal saline, buffered with sodium acetate. The final concentrations of PDMP, Myrj 52 and sodium acetate in mg/ml were 6, 12, and 8 respectively. The PDMP was given intraperitoneally as a dose of 100 mg/kg body weight.
(§3) Glomerular volumes were measured on paraffin sections of kidney fixed in formalin and stained with periodic acid Schiff reagent. The measurements required the determination of the mean glomerular random cross sectional area (A(G)). Glomerular areas were measured using a Javelin Chromachip camera (Javelin Electronics, Torrance, Calif.) attached to an Olympus BH-2 microscope interfaced with a Macintosh II computer containing an Image Capture 2 frame grabber (Scion Corp., Walkerville, Md.) and image 1.38B14 software (NIH Public Software, Bethesda, Md.). Glomerular volumes were derived by the method described in Weibel "Stereological Methods. Practical Methods for Biological Morphometry," (academic Press, London) p. 44-45 (1979) as applied by Hirose, K. et al., Kidney Int. 21:689-695 (1982).
(§4) To determine whether the increase in glucolipid formation in diabetes was functionally important, the following experiment was performed. One group of animals was made diabetic with streptozotocin, and the other group received vehicle alone. After two weeks, the control and diabetic groups were divided according to the weights of the rats. Half of the non-diabetic and half of the diabetic animals received DL-threo-PDMP, which is the racemic mixture of the compound of the Formula I where n is 8. The control non-diabetic and diabetic groups were pair fed and received vehicle alone. After 4 days of treatment the animals were weighed and sacrificed. In Table V, the data are expressed as the mean ± S.D. All animals received the cytochrome P450 inhibitor piperonyl butoxide (600 mg/kg) intraperitoneally. Treated control and diabetic animals received DL-threo-PDMP.

For data set [2], the system named is non-diabetic control male rats. Nature of the data set: PDMP treatment of non-diabetic control rats. The format is in vivo, rat. The procedure:
as §1, §2, §3, §4

The conditions of data set [3]: 100 mg/kg, cited from earlier work.
Data set [4] concerns Madin-Darby canine kidney (MDCK) cells. As to conditions: Shayman et al. 1991; cited from earlier work.
The conditions of data set [5]: in vivo.
[6] abbreviates: Diabetic + PDMP, n=7, DL-threo-PDMP 100 mg/kg i.p. 4 days with piperonyl butoxide, mean ± S.D.
Setting [7] is: Control + PDMP, n=11, DL-threo-PDMP 100 mg/kg i.p. 4 days with piperonyl butoxide, mean ± S.D.

Like-named read-outs stand apart in the source and are kept apart here.

Take `CCCCCCCCCC(=O)N[C@H](CN1CCOCC1)[C@H](O)c1ccccc1` (relative stereo) [PDMP, 1-phenyl-2-decanoylamino-3-morpholino-1-propanol]: the “kidney weights of PDMP-treated diabetic animals compared with untreated diabetic animals” value in data set [1] (4 days of treatment, animals hyperglycemic) is given as “significantly lower”. Also, the “Body Weight” value is listed as 200 ± 11 g in data set [1] (Diabetic + PDMP, n=7, DL-threo-PDMP 100 mg/kg i.p. 4 days from 14 days after streptozotocin, with piperonyl butoxide 600 mg/kg i.p., mean ± S.D.) and 238 ± 21 g in data set [2] (Control + PDMP, n=11, DL-threo-PDMP 100 mg/kg i.p. 4 days with piperonyl butoxide 600 mg/kg i.p., mean ± S.D.). Besides, the BUN in data set [1] (setting [6]) worked out at 28 ± 6.4 mg/dL; in data set [2] (setting [7]), 13 ± 3.2 mg/dL. Also, the “Kidney Weight” value in data set [1] (setting [6]) turned out to be 2.32 ± 0.19 g; in data set [2] (setting [7]), 2.25 ± 0.27 g. The “glomerular volumes compared with control groups” value in data set [1] (morphometric analysis, five kidneys per group, diabetic animals treated with PDMP) is “not significantly different”. Further, in data set [1] (periodic acid Schiff stained kidney sections: acute tubular necrosis, acute or chronic inflammation, glomerular pathology), the “renal histology (drug-induced toxicity)” value is listed as “no evidence of acute tubular necrosis, acute or chronic inflammation, or glomerular pathology”. Also, the Creatinine in data set [1] (serum, Diabetic + PDMP, n=7, DL-threo-PDMP 100 mg/kg i.p. 4 days with piperonyl butoxide, mean ± S.D.) was found to be 0.23 ± 0.05; in data set [2] (serum, Control + PDMP, n=11, DL-threo-PDMP 100 mg/kg i.p. 4 days with piperonyl butoxide, mean ± S.D.), 0.31 ± 0.09. Further, the glomerular size result in data set [2] (morphometric analysis, five kidneys per group, non-diabetic rats) was “no effect”. Moreover, the entries for the “half life of PDMP” value in data set [3] (animals exposed to the mixed function oxidase inhibitor PB) and in data set [3] (without piperonyl butoxide (PB)) were 4 h and 1 h, respectively. Further, the endogenous glycosphingolipid content result in data set [4] is on record as “decreased”.

Turning to `CCCCOCCOCCOCc1cc2c(cc1CCC)OCO2` [PB, piperonyl butoxide], the “effect on renal growth or function” value in data set [5] is “no effect”.

For `OC1C(O)C(O)C2OC2C1O` (centres unmarked) [conduritol B epoxide, reference compound], the endogenous glycosphingolipid content entry in data set [4] was “increased”.

The record behind these values is patent publication US5302609A, “Treatment of diabetic nephropathy” (The Regents of the University of Michigan, priority 1992, dated 1994).
